{"source": "patent US4910225A", "about": "“Locally administrable therapeutic composition for inflammatory disease” (Senju Pharmaceutical Co., Ltd., priority 1988, dated 1990)", "key": {"[1]": {"system": "experimental ophthalmitis induced by bovine serum albumin in white rabbits (ophthalmitis II)", "test": "Anti-inflammatory effect in ophthalmitis II (intravenous bovine serum albumin relapse), gross severity scores", "assay_type": "in vivo", "settings": "for Anterior chamber opacity, degree of inhibition relative to physiological saline group / Balbar conjunctival injection, degree of inhibition relative to physiological saline group / Corneal opacity, degree of inhibition relative to physiological saline group / Discharge, degree of inhibition relative to physiological saline group / External + Internal Grand Total Score, degree of inhibition relative to physiological saline group / External Segment Total Score, degree of inhibition relative to physiological saline group / Internal Segment Total Score, degree of inhibition relative to physiological saline group / Iridic injection, degree of inhibition relative to physiological saline group / Morphological change of iris, degree of inhibition relative to physiological saline group / Palpebral conjunctival edema, degree of inhibition relative to physiological saline group / Palpebral conjunctival injection, degree of inhibition relative to physiological saline group: ophthalmitis II; for Anterior chamber opacity score (Internal Segment) / Balbar conjunctival injection score (External Segment) / Corneal opacity score (External Segment) / Discharge score (External Segment) / External + Internal Grand Total Score / External Segment Total Score / Internal Segment Total Score / Iridic injection score (Internal Segment) / Morphological change of iris score (Internal Segment) / Palpebral conjunctival edema score (External Segment) / Palpebral conjunctival injection score (External Segment): ophthalmitis II, 3, 6, 12 and 24 hours after intravenous BSA, mean ± SE", "method": "(§1) Seventeen male white rabbits weighing about 2 kg were used. They were fed with 80 g of Labo RG-RO (Nippon Agricultural Co., Ltd.) daily and had free access to tap water.\n(§2) After 28 days when ophthalmitis I had nearly recovered, 2.5% BSA solution was administered in a dose of 25 mg/ml/kg into the auricular vein to cause ophthalmitis (ophthalmitis II). The severity of ophthalmitis was rated according to the rating scale^(1) of Yamauchi et al., based on the Draize method in which an increased weight given to the internal segment of the eye. Observation was made with a frequency of once in one or two days during the peak period of inflammation and once in three or four days before and after the peak period for ophthalmitis I and 3, 6, 12 and 24 hours after intravenous injection of BSA for ophthalmitis II.\n^(1) Hideyasu Yamauchi, Makoto Ingu, Tadashi Iso and Kozo Uda: Anti-inflammatory effect of fluorometholone ophthalmic solution in experimental uveitis in rabbits, Folia Ophthalmologica Japonica, 24: 969-79 (1973).\n(§3) Gross observation was made on the day after injection of BSA into the vitreous body and with the animals arranged in the decreasing order of severity of ocular inflammation, grouping was carried out in such a manner that the intensity distribution would be uniform over the groups. Thus, a physiological saline group of 7 animals, a 0.1% Compound [I] instillation group of 4 animals and a 0.5% Compound [I] instillation group of 5 animals were provided. After this grouping procedure, the test drugs and saline were respectively instilled into both eyes of the rabbits, 50 μl per dose, 4 times a day. For induction of ophthalmitis II, each drug was instilled into both eyes, 50 μl per dose, immediately after injection of BSA into the auricular vein and at 1-hour intervals thereafter, for a total of 14 times."}, "[2]": {"system": "experimental ophthalmitis induced by bovine serum albumin in white rabbits (ophthalmitis I)", "test": "Ophthalmitis I: protein, white blood cell count and prostaglandins in anterior chamber aqueous humor", "assay_type": "in vivo", "settings": "for Prostaglandin in anterior chamber aqueous humor: less than the assay limit; for Protein in anterior chamber aqueous humor / White Blood Cell count in anterior chamber aqueous humor: mean ± SE", "method": "as §1, §2, §3"}}, "data": [{"compound": "Nc1c(CC(=O)[O-])cccc1C(=O)c1ccc(Br)cc1.O.[Na+]", "note": "[Compound [I], Sodium 3-(4-bromobenzoyl)-2-aminophenylacetate monohydrate]", "values": [{"measurement": "Anterior chamber opacity, degree of inhibition relative to physiological saline group", "setting": "[1]; 0.1%", "value": -47.4, "unit": "%"}, {"measurement": "Balbar conjunctival injection, degree of inhibition relative to physiological saline group", "setting": "[1]; 0.1%", "value": 27.0, "unit": "%"}, {"measurement": "Corneal opacity, degree of inhibition relative to physiological saline group", "setting": "[1]; 0.1%", "value": 57.1, "unit": "%"}, {"measurement": "Discharge, degree of inhibition relative to physiological saline group", "setting": "[1]; 0.1%", "value": 100, "unit": "%"}, {"measurement": "External + Internal Grand Total Score, degree of inhibition relative to physiological saline group", "setting": "[1]; 0.1%", "value": 35.7, "unit": "%"}, {"measurement": "External Segment Total Score, degree of inhibition relative to physiological saline group", "setting": "[1]; 0.1%", "value": 32.7, "unit": "%"}, {"measurement": "Internal Segment Total Score, degree of inhibition relative to physiological saline group", "setting": "[1]; 0.1%", "value": 40.7, "unit": "%"}, {"measurement": "Iridic injection, degree of inhibition relative to physiological saline group", "setting": "[1]; 0.1%", "value": 61.6, "unit": "%"}, {"measurement": "Morphological change of iris, degree of inhibition relative to physiological saline group", "setting": "[1]; 0.1%", "value": 44.2, "unit": "%"}, {"measurement": "Palpebral conjunctival edema, degree of inhibition relative to physiological saline group", "setting": "[1]; 0.1%", "value": 45.0, "unit": "%"}, {"measurement": "Palpebral conjunctival injection, degree of inhibition relative to physiological saline group", "setting": "[1]; 0.1%", "value": 29.8, "unit": "%"}, {"measurement": "Anterior chamber opacity score (Internal Segment)", "setting": "[1]; 0.1%", "value": "2.8 ± 0.8"}, {"measurement": "Balbar conjunctival injection score (External Segment)", "setting": "[1]; 0.1%", "value": "8.1 ± 0.4"}, {"measurement": "Corneal opacity score (External Segment)", "setting": "[1]; 0.1%", "value": "0.6 ± 0.2"}, {"measurement": "Discharge score (External Segment)", "setting": "[1]; 0.1%", "value": 0}, {"measurement": "External + Internal Grand Total Score", "setting": "[1]; 0.1%", "value": "21.8 ± 2.1"}, {"measurement": "External Segment Total Score", "setting": "[1]; 0.1%", "value": "13.1 ± 1.1"}, {"measurement": "Internal Segment Total Score", "setting": "[1]; 0.1%", "value": "8.0 ± 1.2"}, {"measurement": "Iridic injection score (Internal Segment)", "setting": "[1]; 0.1%", "value": "2.8 ± 0.1"}, {"measurement": "Morphological change of iris score (Internal Segment)", "setting": "[1]; 0.1%", "value": "2.4 ± 0.4"}, {"measurement": "Palpebral conjunctival edema score (External Segment)", "setting": "[1]; 0.1%", "value": "1.1 ± 0.4"}, {"measurement": "Palpebral conjunctival injection score (External Segment)", "setting": "[1]; 0.1%", "value": "4.0 ± 0.3"}, {"measurement": "Anterior chamber opacity, degree of inhibition relative to physiological saline group", "setting": "[1]; 0.5%", "value": -47.4, "unit": "%"}, {"measurement": "Balbar conjunctival injection, degree of inhibition relative to physiological saline group", "setting": "[1]; 0.5%", "value": 27.0, "unit": "%"}, {"measurement": "Corneal opacity, degree of inhibition relative to physiological saline group", "setting": "[1]; 0.5%", "value": 57.1, "unit": "%"}, {"measurement": "Discharge, degree of inhibition relative to physiological saline group", "setting": "[1]; 0.5%", "value": 100, "unit": "%"}, {"measurement": "External + Internal Grand Total Score, degree of inhibition relative to physiological saline group", "setting": "[1]; 0.5%", "value": 34.2, "unit": "%"}, {"measurement": "External Segment Total Score, degree of inhibition relative to physiological saline group", "setting": "[1]; 0.5%", "value": 31.4, "unit": "%"}, {"measurement": "Internal Segment Total Score, degree of inhibition relative to physiological saline group", "setting": "[1]; 0.5%", "value": 33.3, "unit": "%"}, {"measurement": "Iridic injection, degree of inhibition relative to physiological saline group", "setting": "[1]; 0.5%", "value": 54.8, "unit": "%"}, {"measurement": "Morphological change of iris, degree of inhibition relative to physiological saline group", "setting": "[1]; 0.5%", "value": 32.6, "unit": "%"}, {"measurement": "Palpebral conjunctival edema, degree of inhibition relative to physiological saline group", "setting": "[1]; 0.5%", "value": 55.0, "unit": "%"}, {"measurement": "Palpebral conjunctival injection, degree of inhibition relative to physiological saline group", "setting": "[1]; 0.5%", "value": 60.5, "unit": "%"}, {"measurement": "Anterior chamber opacity score (Internal Segment)", "setting": "[1]; 0.5%", "value": "2.8 ± 0.5"}, {"measurement": "Balbar conjunctival injection score (External Segment)", "setting": "[1]; 0.5%", "value": "8.1 ± 0.3"}, {"measurement": "Corneal opacity score (External Segment)", "setting": "[1]; 0.5%", "value": "0.6 ± 0.2"}, {"measurement": "Discharge score (External Segment)", "setting": "[1]; 0.5%", "value": 0}, {"measurement": "External + Internal Grand Total Score", "setting": "[1]; 0.5%", "value": "22.3 ± 1.1"}, {"measurement": "External Segment Total Score", "setting": "[1]; 0.5%", "value": "13.3 ± 0.6"}, {"measurement": "Internal Segment Total Score", "setting": "[1]; 0.5%", "value": "9.0 ± 0.7"}, {"measurement": "Iridic injection score (Internal Segment)", "setting": "[1]; 0.5%", "value": "3.3 ± 0.3"}, {"measurement": "Morphological change of iris score (Internal Segment)", "setting": "[1]; 0.5%", "value": "2.9 ± 0.3"}, {"measurement": "Palpebral conjunctival edema score (External Segment)", "setting": "[1]; 0.5%", "value": "0.9 ± 0.2"}, {"measurement": "Palpebral conjunctival injection score (External Segment)", "setting": "[1]; 0.5%", "value": "3.7 ± 0.1"}, {"measurement": "Inhibitory effect on inflammatory symptoms induced by intravenous antigen", "setting": "[1]; both concentrations (0.1% and 0.5%), gross observation", "value": "substantially complete inhibition at both concentrations"}, {"measurement": "Inhibition of prostaglandins in the aqueous humor", "setting": "[2]; 0.1% and 0.5%", "value": "substantially complete inhibition of prostaglandins in the aqueous humor"}, {"measurement": "Prostaglandin in anterior chamber aqueous humor", "setting": "[2]; 0.1%", "value": "< 0.4", "unit": "ng/mL"}, {"measurement": "Protein in anterior chamber aqueous humor", "setting": "[2]; 0.1%", "value": "48.7 ± 3.8", "unit": "mg/Mml"}, {"measurement": "White Blood Cell count in anterior chamber aqueous humor", "setting": "[2]; 0.1%", "value": "5593 ± 3436", "unit": "Cells/mm^3"}, {"measurement": "Prostaglandin in anterior chamber aqueous humor", "setting": "[2]; 0.5%", "value": "< 0.4", "unit": "ng/mL"}, {"measurement": "Protein in anterior chamber aqueous humor", "setting": "[2]; 0.5%", "value": "28.4 ± 1.6", "unit": "mg/Mml"}, {"measurement": "White Blood Cell count in anterior chamber aqueous humor", "setting": "[2]; 0.5%", "value": "1980 ± 654", "unit": "Cells/mm^3"}]}]}
